From patent US7662973B2, “Fluorescent detection method and reagent” (GE Healthcare UK Limited, priority 2000, dated 2010)
Where a name gives a salt, the structure may show the parent alone.

Assays:
[1] = target: T1, Nitroreductase expressing cells (Escherichia coli, UniProt P38489); experiment: Cellular nitroreductase activity in living cells with cell permeable substrates (plate reader); format: cell-based; conditions: 37° C.
T1 construct: expressed in transfected cells
Method: Cy3Qee (Formula IIIa) and Cy5Qee (Formula IIIb) were evaluated as cell permeable fluorescence substrates for nitroreductase measurement in living cells. Nitroreductase expressing cells and control cells were cultured at 10,000 cells/well in 96 well plates in tissue culture medium containing 10% foetal calf serum and incubated at 37° C. in the presence of 10 μM Cy3Qee or 30 μM Cy5Qee.

[2] = target: T1, Nitroreductase expressing cells; experiment: Cellular nitroreductase activity in living cells by flow cytometry; format: cell-based; conditions: 30 μM Cy3Qee, 2 hours 37° C.; 488 nm laser excitation, 585/42 nm emission
Method: Nitroreductase expressing cells and control cells were incubated for 2 hours at 37° C. in tissue culture media containing 30 μM Cy3Qee. Following incubation cells were washed with phosphate buffered saline and trypsinised to produce cell suspensions for flow cytometry.
Cells were analysed using a FACScalibur flow cytometer (Becton Dickinson) using 488 nm laser excitation and a 585/42 nm emission filter. Results (FIG. 12) show a significant increase in fluorescence in nitroreductase expressing cells (mean fluorescence 169.9) compared with control cells (mean fluorescence 18.2).

[3] = target: E. coli B nitroreductase (Escherichia coli, UniProt P38489); experiment: In vitro evaluation of cassette: reduction by nitroreductase; format: biochemical; conditions: after lysate incubation, 5 minutes with nitroreductase; 610 nm excitation
Sequence of E. coli B nitroreductase (P38489 whole entry): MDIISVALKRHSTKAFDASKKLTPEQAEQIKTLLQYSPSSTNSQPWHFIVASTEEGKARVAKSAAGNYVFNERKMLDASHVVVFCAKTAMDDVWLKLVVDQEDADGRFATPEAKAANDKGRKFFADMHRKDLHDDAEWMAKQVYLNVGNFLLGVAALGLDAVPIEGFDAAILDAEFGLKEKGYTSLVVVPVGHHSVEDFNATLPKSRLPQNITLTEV
Method: (§1) Cy5Q-Cascade blue cassette (0.8 mM in acetate buffer pH 5.0) was diluted to […] in PBS pH 7.4 containing 1 mM NADH. A cell lysate was prepared from 2×10^7 SKOV cells by re-suspension of scraped cells in 5 ml PBS at 4° C. and repeated passage through a 25 gauge syringe needle. Aliquots (1 ml) of Cy5Q-Cascade blue were incubated with 500 μl of cell lysate or PBS for 20 minutes at 37° C. Following incubation 100 μl of a 1 ng/μl solution of E. coli B nitroreductase was added to one sample and incubation continued for 5 minutes. Aliquots ([…]) were then dispensed in quadruplicate from each sample to a 96 well plate for measurement of fluorescence on a Cytofluor plate reader using 450 nm excitation/530 nm emission filters for cascade blue and 610 nm excitation/670 nm emission for Cy5.

[4] = test system: SKOV cells lysate; experiment: In vitro evaluation of cassette: ester linker cleavage by cell lysate; format: cell-based; conditions: 20 minutes 37° C., PBS pH 7.4, 1 mM NADH; 450 nm excitation
Method: as §1

[5] = 10 μM Cy3Qee, 530/25 nm excitation, 580/50 nm emission
[6] = 30 μM Cy5Qee, 610/20 nm excitation, 670/40 nm emission

T1 sequence (P38489 whole entry): as above

Structure (SMILES): CCOC(=O)Cc1ccc2c(c1)C(C)(C)C(/C=C/C=C1/N(C)c3ccc(CC(=O)OCC)cc3C1(C)C)=[N+]2Cc1cc([N+](=O)[O-])cc([N+](=O)[O-])c1 [Cy3Qee]
- fluorescence in control cells [1, 5]: minimal changes in fluorescence
- fluorescence in nitroreductase expressing cells [1, 5]: significant time dependent increase in fluorescence
- mean fluorescence, control cells [2]: 18.2
- mean fluorescence, nitroreductase expressing cells [2]: 169.9

Structure (SMILES): CC1(C)C(/C=C/C=C/C=C2/N(Cc3cc([N+](=O)[O-])cc([N+](=O)[O-])c3)c3ccc(S(=O)(=O)O)cc3C2(C)C)=[N+](CCCCCC(=O)Oc2cc(S(=O)(=O)O)c3ccc4c(S(=O)(=O)[O-])cc(S(=O)(=O)O)c5ccc2c3c45)c2ccc(S(=O)(=O)O)cc21 [Cy5Q-Cascade blue cassette]
- fluorescence emission at 670 nm (Cy5) when nitroreductase enzyme is present [3]: increase in fluorescence emission
- fluorescence emission at 530 nm (Cascade Blue) in the presence of cell lysate [4]: increase of fluorescence emission

Structure (SMILES): CCOC(=O)Cc1ccc2c(c1)C(C)(C)C(/C=C/C=C/C=C1/N(C)c3ccc(CC(=O)OCC)cc3C1(C)C)=[N+]2Cc1cc([N+](=O)[O-])cc([N+](=O)[O-])c1 [Cy5Qee, 1-(3,5-dinitrobenzyl)-5-(2-ethoxy-2-oxoethyl)-2-{(1E,3E)-5-[6-(2-ethoxy-2-oxoethyl)-1,1,3-trimethyl-1,3-dihydro-2H-indol-2-ylidene]-1,3-pentadienyl}-3,3-dimethyl-3H-indoluim Salt]
- fluorescence in control cells [1, 6]: minimal changes in fluorescence
- fluorescence in nitroreductase expressing cells [1, 6]: significant time dependent increase in fluorescence
